Source: patent publication US12502362B2, “Inhibitors of nucleotidyltransferase superfamily enzymes as antibiotics” (priority 2017, dated 2025)
≈ marks a conversion by molar mass, not a printed value.

How the values were obtained:
[1] = system: Coagulase negative Staphylococcus; assay: MIC80 on coagulase negative Staphylococcus; assay type: cell-based
Protocol: (§1) To further characterize the compounds, the minimal inhibitory concentration (MIC80) were determined for selected compounds. MIC80 is defined as the compound concentration at which ≥80% bacterial growth is inhibited compare to untreated controls. Meanwhile, for the selected compounds, cytotoxicity assays (CC50) were performed on a HepG2-derived hepatoblastoma cell line (HEPDES19). […] For the MIC80 measurements, a 1.5 fold dilution series of the compounds was prepared in Mueller-Hinton II broth. […] For CC50 evaluation, soluble tetrazolium dye (MTS) was used to measure mitochondrial toxicity in a human hepatoblastoma cell line (18). The bacteria (E. coli, S. saprophyticus and A. baumannii) used in MIC80 measurements were the same as that in the primary screening, but for Staphylococcus, S. aureus is used primarily because it is a common pathogen in Staphylococcaeae family, while S. saprophyticus is part of the normal human flora. S. aureus (ATCC 29213) is methicillin-sensitive Staphylococcus aureus (MSSA) strain and it was used as a model strain to measure the MIC80.
(§2) It was also tested whether compounds #63 and #285 can inhibit other coagulase-negative Staphylococcus (CNS) including S. epidermidis, S. hominis, etc. […] .

S. aureus (ATCC 29213) = assay: MIC80 on S. aureus; assay type: cell-based, Staphylococcus aureus; conditions: Staphylococcus aureus, ATCC 29213 / MSSA, read-out: MIC80 S. aureus, S. aureus ATCC 29213 (MSSA); ≥80% growth inhibition
[2] = system: S. aureus ATCC strains and methicillin-resistant Staphylococcus aureus (MRSA); assay: MIC80 on S. aureus ATCC strains and MRSA; assay type: cell-based
Protocol: (§3) To further characterize the compounds, the minimal inhibitory concentration (MIC80) were determined for selected compounds. MIC80 is defined as the compound concentration at which ≥80% bacterial growth is inhibited compare to untreated controls. Meanwhile, for the selected compounds, cytotoxicity assays (CC50) were performed on a HepG2-derived hepatoblastoma cell line (HEPDES19). […] For CC50 evaluation, soluble tetrazolium dye (MTS) was used to measure mitochondrial toxicity in a human hepatoblastoma cell line (18). The bacteria (E. coli, S. saprophyticus and A. baumannii) used in MIC80 measurements were the same as that in the primary screening, but for Staphylococcus, S. aureus is used primarily because it is a common pathogen in Staphylococcaeae family, while S. saprophyticus is part of the normal human flora.

[3] = system: Staphylococcus saprophyticus (ATCC BAA-750); assay: MIC80 on S. saprophyticus; assay type: cell-based; conditions: Staphylococcus saprophyticus, ATCCBAA750; S. saprophyticus ATCC BAA-750; read-out: MIC80 S. sapro
Protocol: as §3

Staphylococcus hominis = assay: MIC80 on S. hominis; assay type: cell-based
Protocol: as §1, §2

E. coli (ATCC 35218) = assay: microbe, parasite or virus in culture; assay type: cell-based; conditions: for MIC80: Escherichia coli, ATCC35218, read-out: MIC80 E. coli, E. coli ATCC 35218
[4] = system: Acinetobacter baumannii (Abl, from a patient); assay: microbe, parasite or virus in culture; assay type: cell-based; conditions: Acinetobacter baumannii, read-out: MIC80 A. baumannii, A. baumannii Ab1, MDR patient isolate
[5] = system: Staphylococcus epidermidis; assay: MIC80 on S. epidermidis; assay type: cell-based
Protocol: as §1, §2

[6] = system: HepG2-derived hepatoblastoma cell line (HEPDES19); assay: Cytotoxicity assay (CC50), MTS; assay type: cell-based, human; conditions: HEPDES19 cells
Protocol: as §3

[7] = Cytotoxicity assay (CC50), MTS; assay type: cell-based, human; conditions: human, HepG2-derived hepatoblastoma cell line (HEPDES19), HEPDES19 cells
Protocol: as §3

[8] = system: S. aureus and/or S. saprophyticus; assay: MIC80 on S. aureus and/or S. saprophyticus; assay type: cell-based; conditions: read-out: MIC80 against S. aureus and/or S. saprophyticus
Protocol: as §1

[9] = system: Enterobacter cloacae complex; assay: microbe, parasite or virus in culture; assay type: cell-based; conditions: Enterobacter cloacae
Protocol: as §3
(§4) All these MDR-bacteria are at least resistant to two classes of the antibiotics among five groups and/or specific antibiotics including quinolones/fluorquinolones, carbapenems, cephalosporins, aminoglycosides and piperacillin-tazobactam.

Morganella morganii = assay: microbe, parasite or virus in culture; assay type: cell-based; conditions: Morganella morganii
Protocol: as §3, §4

MDR Enterobacteriaceae = assay: microbe, parasite or virus in culture; assay type: cell-based; conditions: Escherichia coli, read-out: MIC80 on MDR Enterobacteriaceae
Protocol: as §3, §4

Citrobacter koseri = assay: microbe, parasite or virus in culture; assay type: cell-based; conditions: Citrobacter koseri
Protocol: as §3, §4

MDR E. coli = assay: microbe, parasite or virus in culture; assay type: cell-based; conditions: Escherichia coli
Protocol: as §3, §4

Klebsiella pneumoniae = assay: microbe, parasite or virus in culture; assay type: cell-based; conditions: Klebsiella pneumoniae
Protocol: as §3, §4

Compound `O=C(Oc1cccccc1=O)c1ccc(Cl)cc1` [Compound 63] has an MIC80 ([1]; CNS1 (Coagulase negative Staphylococcus)) of 13.2 µM (≈ 3.44 µg/mL), an MIC80 ([1]; CNS2 (Coagulase negative Staphylococcus)) of 5.9 µM (≈ 1.54 µg/mL) and an MIC80 (S. aureus (ATCC 29213)) of 16.5 µM (≈ 4.3 µg/mL). The MIC80 ([2]; ATCC 25923 / MRSA, S. aureus ATCC 25923) was 8.8 µM (≈ 2.29 µg/mL), the MIC80 ([2]; ATCC 29213 / MRSA, S. aureus ATCC 29213 (Table 3)) was 8.8 µM (≈ 2.29 µg/mL) and the MIC80 ([2]; BAA-976 / MRSA, S. aureus ATCC BAA 976) was 13.2 µM (≈ 3.44 µg/mL). The MIC80 ([2]; BAA-977 / MRSA, S. aureus ATCC BAA 977) was 8.8 µM (≈ 2.29 µg/mL), the MIC80 ([2]; MRSA, Sa1 (MRSA)) was 8.8 µM (≈ 2.29 µg/mL) and the MIC80 ([2]; MRSA, Sa2 (MRSA)) was 8.8 µM (≈ 2.29 µg/mL). The MIC80 ([2]; MRSA, Sa3 (MRSA)) was 8.8 µM (≈ 2.29 µg/mL), the MIC80 ([2]; MRSA, Sa5 (MRSA)) was 8.8 µM (≈ 2.29 µg/mL) and the MIC80 ([2]; MRSA, Sa6 (MRSA)) was 8.8 µM (≈ 2.29 µg/mL). The MIC80 ([2]; MRSA, Sa7 (MRSA)) was 8.8 µM (≈ 2.29 µg/mL), the MIC80 ([2]; MRSA, Sa8 (MRSA)) was 8.8 µM (≈ 2.29 µg/mL) and the MIC80 ([2]; MRSA, Sa9 (MRSA)) was 8.8 µM (≈ 2.29 µg/mL). The MIC80 ([2]; MRSA, Sa10 (MRSA)) was 8.8 µM (≈ 2.29 µg/mL), the MIC80 ([2]; MRSA, Sa11 (MRSA)) was 8.8 µM (≈ 2.29 µg/mL) and the MIC80 ([2]; MRSA, Sa12 (MRSA)) was 8.8 µM (≈ 2.29 µg/mL). For the same compound, the MIC80 ([2]; MRSA, Sa14 (MRSA)) was 8.8 µM (≈ 2.29 µg/mL), the MIC80 ([2]; MRSA, Sa15 (MRSA)) was 8.8 µM (≈ 2.29 µg/mL) and the MIC80 ([2]; MRSA, Sa16 (MRSA)) was 8.8 µM (≈ 2.29 µg/mL). For the same compound, the MIC80 ([2]; MRSA, Sa17 (MRSA)) was 8.8 µM (≈ 2.29 µg/mL), the MIC80 ([2]; MRSA, Sa18 (MRSA)) was 8.8 µM (≈ 2.29 µg/mL) and the MIC80 ([2]; MRSA, Sa19 (MRSA)) was 8.8 µM (≈ 2.29 µg/mL). It also gave an MIC80 ([2]; MRSA, Sa20 (MRSA)) of 8.8 µM (≈ 2.29 µg/mL), an MIC80 ([2]; MRSA, Sa21 (MRSA)) of 8.8 µM (≈ 2.29 µg/mL) and an MIC80 ([2]; MRSA, Sa22 (MRSA)) of 8.8 µM (≈ 2.29 µg/mL). The MIC80 ([2]; MRSA, Sa23 (MRSA)) was 8.8 µM (≈ 2.29 µg/mL), the MIC80 [3] was 9.2 µM (≈ 2.4 µg/mL) and the MIC80 (Staphylococcus hominis; Sh1 (Staphylococcus hominis)) was 8.8 µM (≈ 2.29 µg/mL). For the same compound, the MIC80 (Staphylococcus hominis; Sh2 (Staphylococcus hominis)) was 13.2 µM (≈ 3.44 µg/mL), the MIC80 (Staphylococcus hominis; Sh3 (Staphylococcus hominis)) was 8.8 µM (≈ 2.29 µg/mL) and the MIC80 (E. coli (ATCC 35218)) was 111 µM (≈ 29 µg/mL). For the same compound, the MIC80 [4] was 83.4 µM (≈ 21.7 µg/mL), the MIC80 ([5]; Se1 (Staphylococcus epidermidis)) was 8.8 µM (≈ 2.29 µg/mL) and the MIC80 ([5]; Se2 (Staphylococcus epidermidis)) was 8.8 µM (≈ 2.29 µg/mL). It also gave an MIC80 ([5]; Se3 (Staphylococcus epidermidis)) of 8.8 µM (≈ 2.29 µg/mL), an MIC80 ([5]; Se4 (Staphylococcus epidermidis)) of 8.8 µM (≈ 2.29 µg/mL) and an MIC80 ([5]; Se5 (Staphylococcus epidermidis)) of 8.8 µM (≈ 2.29 µg/mL). For the same compound, the CC50 [6] was no less than 100 µM, the CC50 [7] was greater than 50 µM and the MIC80 [8] was less than 20 µM.

With `Cc1ccc(C(=O)Sc2cccccc2=O)cc1` [Compound 284] the MIC80 (S. aureus (ATCC 29213)) was 15 µM (≈ 3.84 µg/mL), the MIC80 [3] was 44.4 µM (≈ 11.4 µg/mL) and the “MIC80 E. coli” value (E. coli (ATCC 35218); E. coli ATCC 35218) was 24.1 µM (≈ 6.18 µg/mL). The MIC80 (E. coli (ATCC 35218)) was less than 30 µM, the MIC80 [4] was 55.6 µM (≈ 14.3 µg/mL) and the MIC80 [9] was 8.8 µM (≈ 2.26 µg/mL). The MIC80 (Morganella morganii) was 19.8 µM (≈ 5.08 µg/mL), the MIC80 (MDR Enterobacteriaceae) was no more than 20 µM and the MIC80 (Citrobacter koseri) was 8.8 µM (≈ 2.26 µg/mL). It also gave an MIC80 (MDR E. coli; Ec1 (MDR E. coli)) of 5.9 µM (≈ 1.51 µg/mL), an MIC80 (MDR E. coli; Ec2 (MDR E. coli)) of 3.9 µM (≈ 1 µg/mL) and an MIC80 (MDR E. coli; Ec3 (MDR E. coli)) of 5.9 µM (≈ 1.51 µg/mL). The MIC80 (MDR E. coli; Ec4 (MDR E. coli)) was 8.8 µM (≈ 2.26 µg/mL), the MIC80 (MDR E. coli; Ec5 (MDR E. coli)) was 29.6 µM (≈ 7.59 µg/mL) and the MIC80 (Klebsiella pneumoniae; Kp1 (Klebsiella pneumonia)) was 5.9 µM (≈ 1.51 µg/mL). It also gave an MIC80 (Klebsiella pneumoniae; Kp6 (Klebsiella pneumonia)) of 29.6 µM (≈ 7.59 µg/mL), a CC50 [7] greater than 50 µM and an MIC80 [8] of less than 20 µM.
